Structures can show the parent of a compound that is named as a salt.
Target: endogenous cellular BACE2 in the Ins1e rat cell line (Rattus norvegicus (Rat), UniProt Q6IE75)
Test: Assay for BACE inhibition by measuring cellular TMEM27 cleavage (ELISA of shed hTMEM27 from INS-TMEM27 cells)
Type: cell-based
Conditions: assay a): cellular TMEM27 cleavage, INS-TMEM27 cells (superscript a)
In short: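 INS1e-derived cells with doxycycline-inducible (TetOn) full-length human TMEM27 get inhibitor 2 h before 500 ng/ml doxycycline, then 46 h further culture at 37 °C. Shed TMEM27 in supernatant measured by sandwich ELISA (anti-extracellular-domain antibodies); EC50 from concentration-response curve fit.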

Chain of endogenous cellular BACE2 in the Ins1e rat cell line (Q6IE75 63-514): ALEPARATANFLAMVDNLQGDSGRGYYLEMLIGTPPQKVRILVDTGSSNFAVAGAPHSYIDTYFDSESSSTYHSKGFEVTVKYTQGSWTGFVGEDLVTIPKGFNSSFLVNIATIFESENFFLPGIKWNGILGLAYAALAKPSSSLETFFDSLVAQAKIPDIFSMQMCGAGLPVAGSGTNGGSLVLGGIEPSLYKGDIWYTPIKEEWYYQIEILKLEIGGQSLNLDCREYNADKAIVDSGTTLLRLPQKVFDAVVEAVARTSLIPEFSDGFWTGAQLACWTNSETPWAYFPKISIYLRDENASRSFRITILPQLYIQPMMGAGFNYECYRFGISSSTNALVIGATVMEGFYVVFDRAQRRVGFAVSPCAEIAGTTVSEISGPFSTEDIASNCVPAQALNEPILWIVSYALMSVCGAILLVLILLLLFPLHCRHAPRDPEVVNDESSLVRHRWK

IC50 [nM]	Compound
2	CN1C(=O)C(C)(C)[C@@](C)(c2cc(Nc3ccnn3Cc3ccccc3)ccc2F)N=C1N [Example 107, (S)-2-Amino-6-(5-(1-benzyl-1H-pyrazol-5-ylamino)-2-fluorophenyl)-3,5,5,6-tetramethyl-5,6-dihydropyrimidin-4(3H)-one]
36	CCC1CC(Nc2ccc(F)c([C@@]3(C)N=C(N)N(C)C(=O)C3(C)C)c2)c2ccccc21 (stereo partly drawn) [Example 113, (S)-2-Amino-6-[5-(3-ethyl-indan-1-ylamino)-2-fluoro-phenyl]-3,5,5,6-tetramethyl-5,6-dihydro-3H-pyrimidin-4-one]
2	Cc1ccc(Cl)cc1Nc1ccc(F)c([C@@]2(C)N=C(N)N(C)C(=O)C2(C)C)c1 [Example 118, (S)-2-Amino-6-(5-(5-chloro-2-methylphenylamino)-2-fluorophenyl)-3,5,5,6-tetramethyl-5,6-dihydropyrimidin-4(3H)-one]
16	CN1C(=O)C(C)(C)[C@@](C)(c2cc(Nc3ccccc3Cl)ccc2F)N=C1N [Example 119, (S)-2-Amino-6-(5-(2-chlorophenylamino)-2-fluorophenyl)-3,5,5,6-tetramethyl-5,6-dihydropyrimidin-4(3H)-one]
73	CC(Nc1ccc(F)c([C@@]2(C)N=C(N)N(C)C(=O)C2(C)C)c1)c1nc2ccccc2s1 (stereo partly drawn) [Example 127, (S)-2-Amino-6-[5-(1-benzothiazol-2-yl-ethylamino)-2-fluoro-phenyl]-3,5,5,6-tetramethyl-5,6-dihydro-3H-pyrimidin-4-one]
3050	COc1ccc(C(=O)O)cc1Nc1ccc(F)c([C@@]2(C)N=C(N)N(C)C(=O)C2(C)C)c1 [Example 129, (S)-3-(3-(2-amino-1,4,5,5-tetramethyl-6-oxo-1,4,5,6-tetrahydropyrimidin-4-yl)-4-fluorophenylamino)-4-methoxybenzoic acid]
256	CN1C(=O)C(C)(C)[C@@](C)(c2cc(NC(=O)C3(C)COC3)ccc2F)N=C1N [Example 131]
734	CN1C(=O)C(C)(C)[C@@](C)(c2cc(NC(=O)C3(O)CC3)ccc2F)N=C1N [Example 134, 1-Hydroxy-cyclopropanecarboxylic acid [3-((S)-2-amino-1,4,5,5-tetramethyl-6-oxo-1,4,5,6-tetrahydro-pyrimidin-4-yl)-4-fluoro-phenyl]-amide]
2000	CN1C(=O)C(C)(C)[C@@](C)(c2cc(NC3CCc4c(C(=O)O)cccc43)ccc2F)N=C1N (stereo partly drawn) [Example 136, 1-[3-((S)-2-Amino-1,4,5,5-tetramethyl-6-oxo-1,4,5,6-tetrahydro-pyrimidin-4-yl)-4-fluoro-phenylamino]-indan-4-carboxylic acid]
500	CN1C(=O)C(C)(C)[C@@](C)(c2cc(Nc3cccnc3)ccc2F)N=C1N [Example 138, (S)-2-Amino-6-(2-fluoro-5-(pyridin-3-ylamino)phenyl)-3,5,5,6-tetramethyl-5,6-dihydropyrimidin-4(3H)-one]
31	CN1C(=O)C(C)(C)[C@@](C)(c2cc(NC(=O)C(C)(O)c3ccccc3)ccc2F)N=C1N (stereo partly drawn) [Example 139, N-[3-((S)-2-Amino-1,4,5,5-tetramethyl-6-oxo-1,4,5,6-tetrahydro-pyrimidin-4-yl)-4-fluoro-phenyl]-2-hydroxy-2-phenyl-propionamide]
332	CN1C(=O)C(C)(C)[C@@](C)(c2cc(NC(=O)C(C)(O)c3ccc(Cl)cc3)ccc2F)N=C1N (stereo partly drawn) [Example 141, N-[3-((S)-2-Amino-1,4,5,5-tetramethyl-6-oxo-1,4,5,6-tetrahydro-pyrimidin-4-yl)-4-fluoro-phenyl]-2-(4-chloro-phenyl)-2-hydroxy-propionamide]
89	CN1C(=O)C(C)(C)[C@@](C)(c2cc(NC(=O)[C@@](C)(O)C(F)(F)F)ccc2F)N=C1N [Example 142, (R)—N-(3-((S)-2-amino-1,4,5,5-tetramethyl-6-oxo-1,4,5,6-tetrahydropyrimidin-4-yl)-4-fluorophenyl)-3,3,3-trifluoro-2-hydroxy-2-methylpropanamide]
44	CN1C(=O)C(C)(C)[C@@](C)(c2cc(NC(=O)[C@](C)(O)C(F)(F)F)ccc2F)N=C1N [Example 143, (S)—N-(3-((S)-2-amino-1,4,5,5-tetramethyl-6-oxo-1,4,5,6-tetrahydropyrimidin-4-yl)-4-fluorophenyl)-3,3,3-trifluoro-2-hydroxy-2-methylpropanamide]

Further lines, the compound ahead of its results:

Compound	IC50 [nM]
COc1ccc(Nc2ccc(F)c([C@@]3(C)N=C(N)N(C)C(=O)C3(C)C)c2)c(OC)c1 [Example 108, (S)-2-Amino-6-(5-(2,4-dimethoxyphenylamino)-2-fluorophenyl)-3,5,5,6-tetramethyl-5,6-dihydropyrimidin-4(3H)-one]	178
Cc1nc(CNc2ccc(F)c([C@@]3(C)N=C(N)N(C)C(=O)C3(C)C)c2)co1 [Example 109, (S)-2-Amino-6-{2-fluoro-5-[(2-methyl-oxazol-4-ylmethyl)-amino]-phenyl}-3,5,5,6-tetramethyl-5,6-dihydro-3H-pyrimidin-4-one]	45
Cc1cn[nH]c1CNc1ccc(F)c([C@@]2(C)N=C(N)N(C)C(=O)C2(C)C)c1 [Example 110, (S)-2-Amino-6-{2-fluoro-5-[(4-methyl-2H-pyrazol-3-ylmethyl)-amino]-phenyl}-3,5,5,6-tetramethyl-5,6-dihydro-3H-pyrimidin-4-one]	391
CC(Nc1ccc(F)c([C@@]2(C)N=C(N)N(C)C(=O)C2(C)C)c1)c1ccn[nH]1 (stereo partly drawn) [Example 111, (S)-2-Amino-6-{2-fluoro-5-[1-(2H-pyrazol-3-yl)-ethylamino]-phenyl}-3,5,5,6-tetramethyl-5,6-dihydro-3H-pyrimidin-4-one]	46
CN1C(=O)C(C)(C)[C@@](C)(c2cc(NC3CCC(CC(=O)O)C3)ccc2F)N=C1N (stereo partly drawn) [Example 115, 2-(3-(3-((S)-2-Amino-1,4,5,5-tetramethyl-6-oxo-1,4,5,6-tetrahydropyrimidin-4-yl)-4-fluorophenylamino)cyclopentyl)acetic acid]	977
CN1C(=O)C(C)(C)[C@@](C)(c2cc(NC3CCC(CC(=O)O)C3(C)C)ccc2F)N=C1N (stereo partly drawn) [Example 116, 2-(3-(3-((S)-2-Amino-1,4,5,5-tetramethyl-6-oxo-1,4,5,6-tetrahydropyrimidin-4-yl)-4-fluorophenylamino)-2,2-dimethylcyclopentyl)acetic acid]	2160
CN1C(=O)C(C)(C)[C@@](C)(c2cc(NC3[C@H]4[C@@H](C[C@H]3O)[C@@H]4C(=O)O)ccc2F)N=C1N (stereo partly drawn) [Example 117, (1S,3R,5R,6S)-2-(3-((S)-2-amino-1,4,5,5-tetramethyl-6-oxo-1,4,5,6-tetrahydropyrimidin-4-yl)-4-fluorophenylamino)-3-hydroxybicyclo[3.1.0]hexane-6-carboxylic acid]	226
COc1ccc(C(F)(F)F)cc1Nc1ccc(F)c([C@@]2(C)N=C(N)N(C)C(=O)C2(C)C)c1 [Example 121, (S)-2-Amino-6-(2-fluoro-5-(2-methoxy-5-(trifluoromethyl)phenylamino)phenyl)-3,5,5,6-tetramethyl-5,6-dihydropyrimidin-4(3H)-one]	9
COC(=O)c1ccc(Nc2ccc(F)c([C@@]3(C)N=C(N)N(C)C(=O)C3(C)C)c2)c(OC)c1 [Example 123, (S)-Methyl-4-(3-(2-amino-1,4,5,5-tetramethyl-6-oxo-1,4,5,6-tetrahydropyrimidin-4-yl)-4-fluorophenylamino)-3-methoxybenzoate]	46
CN1C(=O)C(C)(C)[C@@](C)(c2cc(Nc3ccn[nH]3)ccc2F)N=C1N [Example 124, (S)-6-(5-(1H-Pyrazol-5-ylamino)-2-fluorophenyl)-2-amino-3,5,5,6-tetramethyl-5,6-dihydropyrimidin-4(3H)-one hydrochloride]	589
Cc1cc(C(C)Nc2ccc(F)c([C@@]3(C)N=C(N)N(C)C(=O)C3(C)C)c2)[nH]n1 (stereo partly drawn) [Example 125, (S)-2-Amino-6-{2-fluoro-5-[1-(5-methyl-2H-pyrazol-3-yl)-ethylamino]-phenyl}-3,5,5,6-tetramethyl-5,6-dihydro-3H-pyrimidin-4-one]	28
Cc1nc(C(C)Nc2ccc(F)c([C@@]3(C)N=C(N)N(C)C(=O)C3(C)C)c2)sc1C (stereo partly drawn) [Example 126, (S)-2-Amino-6-{5-[1-(4,5-dimethyl-thiazol-2-yl)-ethylamino]-2-fluoro-phenyl}-3,5,5,6-tetramethyl-5,6-dihydro-3H-pyrimidin-4-one]	26
CN1C(=O)C(C)(C)[C@@](C)(c2cc(NC3COC3)ccc2F)N=C1N [Example 132, (S)-2-Amino-6-[2-fluoro-5-(oxetan-3-ylamino)-phenyl]-3,5,5,6-tetramethyl-5,6-dihydro-3H-pyrimidin-4-one]	54
CN1C(=O)C(C)(C)[C@@](C)(c2cc(NC3COc4cc(Cl)ccc43)ccc2F)N=C1N (stereo partly drawn) [Example 133, (S)-2-Amino-6-[5-(6-chloro-2,3-dihydro-benzofuran-3-ylamino)-2-fluoro-phenyl]-3,5,5,6-tetramethyl-5,6-dihydro-3H-pyrimidin-4-one]	41
CN1C(=O)C(C)(C)[C@@](C)(c2cc(NC3CCCC3C#N)ccc2F)N=C1N (stereo partly drawn) [Example 135, 2-[3-((S)-2-Amino-1,4,5,5-tetramethyl-6-oxo-1,4,5,6-tetrahydro-pyrimidin-4-yl)-4-fluoro-phenylamino]-cyclopentanecarbonitrile]	1
CC(=O)N1CC(Nc2ccc(F)c([C@@]3(C)N=C(N)N(C)C(=O)C3(C)C)c2)c2ccc(F)cc21 (stereo partly drawn) [Example 137, (S)-6-[5-(1-Acetyl-6-fluoro-2,3-dihydro-1H-indol-3-ylamino)-2-fluoro-phenyl]-2-amino-3,5,5,6-tetramethyl-5,6-dihydro-3H-pyrimidin-4-one]	124
CN1C(=O)C(C)(C)[C@@](C)(c2cc(NC3CCOc4cc(F)ccc43)ccc2F)N=C1N (stereo partly drawn) [Example 140, (S)-2-Amino-6-[2-fluoro-5-(7-fluoro-chroman-4-ylamino)-phenyl]-3,5,5,6-tetramethyl-5,6-dihydro-3H-pyrimidin-4-one]	47

— patent US8815881B2 (Hoffmann-La Roche Inc., priority 2010, dated 2014)
